Results published in US7638036B2, “Redox potential mediated carbon nanotubes biosensing in homogeneous format” (E. I. du Pont de Nemours and Company, priority 2004, dated 2009).
Where a name gives a salt, the structure may show the parent alone. Read-outs that look alike come from different tables or passages of the source.

Tests used:
[1] = tested on: Trametes versicolor laccase; test: Laccase inhibitor evaluation: rate of ABTS^−2 oxidation at varied inhibitor and substrate concentrations (1/V versus [I] plots); assay type: biochemical
Protocol: High potential quinones/quinols were screened to identify those with characteristics that would be suitable for use as an inhibitor of laccase, to be used in an activity switch.
Compounds were evaluated by varying the concentrations of inhibitor and substrate (ABTS^−2) and measuring under each condition the rate of ABTS^−2 oxidation. […] Tetrachloro-o-quinol and tetrafluoro-o-quinol, shown in Diagram I, had Kds, of 7-9 μM and 2.5 μM, respectively, as determined from the data in FIG. 12.
After the addition of sodium cyanoborohydride (6 mg, 100 nmol), the reaction mixture was stirred for an additional 2 hours, washed with water (2×0.5 mL) and dried on a rotavap.

[2] = tested on: Trametes versicolor laccase; test: Laccase assay: ABTS^−2 oxidation followed by absorbance change at 436 nm, with and without NaF; assay type: biochemical; details: 1 mM NaF; 5 mM ABTS^−2 in 50 mM Glycine pH 3.0
[3] = tested on: laccase Type I copper center; test: Laccase 600 nm absorbance peak on inhibitor binding; parameters: species or system Trametes versicolor; details: charge-transfer band of Type I copper center
Description: This conclusion was strengthened by the observation that the binding of tetrachloro-o-quinol to laccase caused a decrease in the amplitude of the laccase 600 nm absorbance peak, dominated by a charge-transfer band involving the Type I copper center and its cysteinyl ligand.

[4] = inhibitor of laccase, substrate ABTS^−2, read-out: Kd (dissociation constant of the inhibitor, −Ki at intersection point)

| Structure (SMILES) | Kd [1, 4] | activity as laccase inhibitor ([1]; substrate ABTS^−2) | further results |
| --- | --- | --- | --- |
| CCn1c(=NN=c2sc3cc(S(=O)(=O)O)ccc3n2CC)sc2cc(S(=O)(=O)O)ccc21 [ABTS^−2, 2,2′-azino-bis(3-ethylbenz-thiazoline-6-sulfonate) diammonium salt, reference compound] | – | – | Kd ([1]; substrate binding to laccase, read-out: dissociation constant, Kd of the laccase substrate): 120 to 240 µM |
| [F-].[Na+] [NaF] | – | – | inhibition of laccase activity [2]: 95% |
| Oc1c(O)c(Cl)c(Cl)c(Cl)c1Cl [Tetrachloro-o-quinol] | 7 to 9 µM | effective inhibitor | amplitude of the laccase 600 nm absorbance peak on binding [3]: decrease |
| Oc1c(Cl)c(Cl)c(O)c(Cl)c1Cl [tetrachloro-p-quinol, reference compound] | – | inactive as an inhibitor | – |
| Oc1c(O)c(F)c(F)c(F)c1F [tetrafluoro-o-quinol] | 2.5 µM | – | – |
